In patent US20220387304A1, “MULTI-LAYERED NANOPARTICLE COATED SUBSTRATES FOR DRUG DELIVERY” (The UAB Research Foundation, priority 2019, published 2022):
Where two headings read alike, the source gives them in different places.

What was measured:
[1] = test system: Interleukin-8 (IL-8); assay: LPS-induced IL-8 secretion from HSNEC (ELISA); format: cell-based, human; settings: n=3
Text: (§1) Primary HSNECs were collected with prior approval of the Institutional Review Board at University of Alabama at Birmingham (UAB) (IRB-120305017). Written informed consent from each participant was collected and subjects were screened and negative for a mutation in the cystic fibrosis transmembrane conductance regulator gene. Primary HSNECs were derived from turbinate mucosa from 3 healthy donors undergoing surgery for non-inflammatory conditions and cultured on collagen-coated Costar 6.5-mm-diameter permeable filter supports (Corning, Lowell, Mass.) submerged in established culture media. Differentiation and ciliogenesis occurred in all cultures within 10 to 14 days.^17-26 Matured HSNECs with resistance over 300 Ω/cm^2 and 80% field ciliogenesis by inverted microscopy were subjected to experiments.
After the incubation period, the basal media (600 μL) were collected and measured for IL-8 concentration in each sample according to the manufacture's protocol (R&D systems, Minneapolis, Minn.). The secreted IL-8 concentration in each sample was evaluated by measuring the absorbance at 450 nm using a microplate reader (Synergy HK, BIO-TEK Instruments, Winooski, Vt.). All samples were performed in triplicate.
To evaluate the anti-inflammatory effects of azithromycin on HSNEC, cells were stimulated with 25 μg/ml of P. aeruginosa lipopolysaccharide (LPS) for 2 hours, and treated with incremental azithromycin concentrations (6, 60, and 180 μg/ml) (FIG. 13). After a 24-hour incubation period, the basolateral media was harvested and secreted IL-8 was measured.

[2] = test system: HSNECs; assay: Paracellular permeability of FITC dextran across HSNECs; format: cell-based, human; settings: for average paracellular permeability of dextran particles: human
Protocol: The diffusion-barrier of […] is determined by a tight epithelial barrier and tight junction formation and is impacted by a number of chemicals. […] The permeated concentrations of FITC dextran were quantified by a fluorescence microplate reader.

[3] = test system: HSNECs; assay: Ciliary beat frequency analysis; format: cell-based, human
Protocol: After applying 100 μL of sterilized PBS as control or PBS containing drug to the apical surface of the cells, the motion images were acquired for 30 minutes. Under each condition, image acquisition was performed using a Basler area scan high-speed monochromatic digital video camera (Basler AG, Ahrensburg, Germany) at a sampling rate of 100 frames per second. The Sisson-Ammons Video Analysis (SAVA) system was used to acquire CBF. Baseline CBF recording was conducted in the previously described manner, and each analysis of CBF was normalized to fold-change over baseline CBF Hz (treatment/baseline).^28

[4] = test system: HSNECs; assay: HSNEC viability LDH assay; format: cell-based, human
Text: Concentration gradients generated from internal standards (with positive controls) provided by the manufacturer render a theoretical kit detection range in biological samples containing IL-8. […] Louis, Mo.). […] The resulting formazan absorbs maximally at 492 nm and can be measured quantitatively at 490 nm. Total LDH in each sample was expressed as ng/ml.

[5] = test system: HSNECs; settings: human, 30 μg/ml
Text: as §1

average paracellular permeability of dextran particles ([2]; 3 h)	average paracellular permeability of dextran particles ([2]; 6 h)	normalized TEER ([5]; 3 h)	normalized TEER ([5]; 6 h)	Structure (SMILES)	secreted IL-8 ([1]; azithromycin 6 μg/ml, 25 μg/ml LPS 2 hours, 24-hour incubation)	secreted IL-8 ([1]; azithromycin 60 μg/ml, 25 μg/ml LPS 2 hours, 24-hour incubation)	secreted IL-8 ([1]; azithromycin 180 μg/ml, 25 μg/ml LPS 2 hours, 24-hour incubation)	paracellular permeability of HSNECs over time [2]	ciliary beat frequency [3]	cellular viability of HSNECs, LDH [4]	secreted IL-8 ([1]; ciprofloxacin 2.4 μg/ml alone with LPS exposure)
0.10+/−0.15%	3.44+/−0.24%	1.14+/−0.06 Ω/cm^2	1.02+/−0.37 Ω/cm^2	CC[C@H]1OC(=O)[C@H](C)[C@@H](O[C@H]2C[C@@](C)(OC)[C@@H](O)[C@H](C)O2)[C@H](C)[C@@H](O[C@@H]2O[C@H](C)C[C@H](N(C)C)[C@H]2O)[C@](C)(O)C[C@@H](C)CN(C)[C@H](C)[C@@H](O)[C@]1(C)O [azithromycin]	4.579 ± 0.399 ng/mL	4.312 ± 0.057 ng/mL	4.269 ± 0.258 ng/mL	No alterations in average paracellular permeability	No significant difference in ciliary beat frequency	No detrimental effect on the cellular viability	
				O=C(O)c1cn(C2CC2)c2cc(N3CCNCC3)c(F)cc2c1=O [ciprofloxacin]					No significant difference in ciliary beat frequency	No detrimental effect on the cellular viability	6.40 ± 0.26 ng/mL
